According to article PMC6136660 (Steroids, 2018):
Read-outs that look alike come from different tables or passages of the source.

What was measured:
[1] = SAD food effect cohort (8 mg/kg with high fat/high calorie meal) pharmacokinetics; format: in vivo, human
Protocol: In the SAD part of the study, 7 cohorts were to be enrolled. Eight subjects were assigned to each of Cohorts 1 to 5 and 7 and received a single oral dose of vamorolone (planned as 0.1 mg/kg, 0.3 mg/kg, 1.0 mg/kg, 3.0 mg/kg, 8.0 mg/kg, and 20.0 mg/kg, respectively) or placebo under fasted conditions. Six subjects were assigned to Cohort 6 and were administered a single oral dose of 8.0 mg/kg vamorolone within 30 min of beginning a high fat/high calorie meal.
Subjects in Cohorts 1 through 5 and 7 were randomized to receive vamorolone or placebo in a 3:1 ratio (6 subjects received vamorolone, and 2 subjects received placebo) sequentially. In Cohort 1, 3 sentinel subjects were administered vamorolone or placebo in a 2:1 ratio. Following a review of sentinel safety and tolerability data (including reported adverse events [AEs], clinical laboratory tests, vital signs, and electrocardiograms [ECGs]), the remaining 5 subjects were randomized to receive vamorolone or placebo in a 4:1 ratio and dosed no earlier than 48 h after sentinel dosing. In Cohorts 2 to 5, and 7, subjects were administered vamorolone or placebo in a 3:1 ratio. Once Cohort 5 was completed and safety data had been reviewed, subjects in Cohort 6 were administered a single oral dose of 8.0 mg/kg vamorolone within 30 min of beginning a standard high fat/high calorie meal.

[2] = target: T1, mineralocorticoid receptor (Homo sapiens, UniProt P08235); experiment: In vitro reporter assays for steroid hormone receptors, agonist and antagonist modes; format: cell-based; conditions: in vitro reporter assays (unpublished observations)
T1 sequence (P08235 1-984): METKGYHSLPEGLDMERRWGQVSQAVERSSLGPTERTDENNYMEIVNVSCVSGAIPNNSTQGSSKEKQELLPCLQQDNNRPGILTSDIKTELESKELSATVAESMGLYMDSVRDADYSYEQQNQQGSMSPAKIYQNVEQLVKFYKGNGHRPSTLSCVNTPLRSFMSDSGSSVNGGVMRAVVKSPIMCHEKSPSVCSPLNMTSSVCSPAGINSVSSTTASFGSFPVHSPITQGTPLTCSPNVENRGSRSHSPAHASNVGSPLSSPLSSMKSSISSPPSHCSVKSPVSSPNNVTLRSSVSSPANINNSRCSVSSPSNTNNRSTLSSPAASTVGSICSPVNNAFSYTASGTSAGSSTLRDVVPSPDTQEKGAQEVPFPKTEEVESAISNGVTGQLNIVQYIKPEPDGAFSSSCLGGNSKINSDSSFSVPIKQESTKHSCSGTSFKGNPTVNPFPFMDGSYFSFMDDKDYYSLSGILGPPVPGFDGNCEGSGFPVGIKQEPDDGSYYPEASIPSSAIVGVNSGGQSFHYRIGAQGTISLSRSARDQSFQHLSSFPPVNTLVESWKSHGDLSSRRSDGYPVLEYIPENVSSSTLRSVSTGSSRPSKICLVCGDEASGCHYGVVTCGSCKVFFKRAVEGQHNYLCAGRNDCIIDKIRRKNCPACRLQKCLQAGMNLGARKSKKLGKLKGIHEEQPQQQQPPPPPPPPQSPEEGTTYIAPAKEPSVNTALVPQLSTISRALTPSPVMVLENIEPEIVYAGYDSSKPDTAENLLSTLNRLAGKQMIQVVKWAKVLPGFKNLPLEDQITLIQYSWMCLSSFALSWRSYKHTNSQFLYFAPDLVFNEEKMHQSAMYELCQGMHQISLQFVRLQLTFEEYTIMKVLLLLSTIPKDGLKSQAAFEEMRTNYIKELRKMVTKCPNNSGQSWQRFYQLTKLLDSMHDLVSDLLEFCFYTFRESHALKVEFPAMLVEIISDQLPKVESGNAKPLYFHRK
Excerpt: In addition to the dissociation of […] (lost) and transrepression (retained) activities, vamorolone has changed additional sub-activities of traditional glucocorticoids. Cortisol and pharmacological glucocorticoids show high affinity for the mineralocorticoid receptor, similar to its physiological ligand, aldosterone. Glucocorticoids and aldosterone act as agonists for the mineralocorticoid receptor, and high circulating levels of pharmacological glucocorticoids result in salt imbalance and water weight gain (Cushingoid appearance) via the reninangiotensin system. […] Vamorolone can not be metabolized by 11β-Hydroxysteroid dehydrogenase (11BHSD) isoforms, and thus should show greater stability in aldosterone-responsive cells (e.g. not inactivated as cortisol and glucocorticoids are).

[3] = human, plasma, single oral 8 mg/kg, fed, geometric mean (%CV)

SMILES: C[C@@H]1C[C@H]2[C@@H]3CCC4=CC(=O)C=C[C@]4(C)C3=CC[C@]2(C)[C@@]1(O)C(=O)CO [vamorolone]
- AUC(0-t) ratio of the geometric means ([1]; 8 mg/kg, fed vs fasted): 2.54
- AUC(inf) ratio of the geometric means ([1]; 8 mg/kg, fed vs fasted): 2.82
- Cmax ratio of the geometric means ([1]; 8 mg/kg, fed vs fasted): 2.53
- increase in bioavailability with a 40 g fat meal ([1]; 8 mg/kg, fed vs fasted): 250%
- increase in Cmax, AUC(0-t), and AUC(inf) under fed conditions ([1]; 8 mg/kg, high calorie/high fat meal (40 g fat) vs fasted): 2.5 fold
- increase in Tmax under fed conditions ([1]; 8 mg/kg, high calorie/high fat meal vs fasted): ~ 2 fold
- AUC(0-inf) [1, 3]: 10200 ng·h/mL
- AUC(0-t) [1, 3]: 10100 ng·h/mL
- Cmax [1, 3]: 1820 ng/mL
- CL/F ([1]; human, plasma, single oral 8 mg/kg, fed, geometric mean (%CV), read-out: CL/F (converted)): 13.2 mL/min/kg
- Vd/F ([1]; human, plasma, single oral 8 mg/kg, fed, geometric mean (%CV), read-out: Vz/F): 2.67 L/kg
- half-life ([1]; human, plasma, single oral 8 mg/kg, fed, geometric mean (%CV), read-out: t½ (converted)): 2.35 h
- k el ([1]; human, plasma, single oral 8 mg/kg, fed, geometric mean (%CV), read-out: λz (converted)): 8.19e-05 s⁻¹
- Tmax ([1]; human, plasma, single oral 8 mg/kg, fed, median): 4 h
- CL/F ([1]; single oral 8 mg/kg, fed, geometric mean (%CV)): 66.7 (28.4) (6) L/h
- activity at the mineralocorticoid receptor [2]: potent antagonist
